# Source: PMC8690933, “Evans blue-modified radiolabeled fibroblast activation protein inhibitor as long-acting cancer therapeutics” (Theranostics, 2022)
# Entries after “also recorded” stand apart in the source; their conditions may differ.
# Assays:
# U87MG tumor [1] = test: Small animal PET imaging in U87MG tumor-bearing mice; assay type: in vivo; details: 1 h p.i.
# Procedure: All animal studies were approved by the Animal Care and Use Committee of Xiamen University and carried out in compliance with the national laws related to the conduct of animal experimentation. 6-week-old female BALB/c nude mice from Beijing Vital River Laboratory Animal Technology Co., Ltd. were used in this study. The right upper limbs of BALB/c nude mice were subcutaneously inoculated with the suspension of U87MG cells (5 × 10^6 cells in 100 μL of PBS). […] PET scans were performed by using Inveon small-animal PET scanner (Siemens Preclinical Solution). […] At 1 h p.i., the mice were anaesthetized and placed on the bed for PET imaging. […] PET images were reconstructed with attenuation correction and analyzed through drawing regions of interest (ROIs).
# U87MG cells = test: Cell uptake and blocking assay; assay type: cell-based
# Procedure: (§1) U87MG cells were cultivated in Dulbecco modified Eagle medium (DMEM) containing 10% fetal calf serum (FCS) at 37 ℃ in 5% carbon dioxide (CO2). For cell uptake experiment, U87MG cells were seeded in 24-well plates (2 × 10^5/well) overnight. The cells were incubated with 37 kBq of ^177Lu-EB-FAPI series compounds in 0.5 mL of medium for 0.5, 1, 2, 4, 8 and 24 h at 37 °C. In the blocking group, FAPI-02 (10 μg/well) were added as inhibitors of the labeled precursors. For competition assays, U87MG cells were incubated simultaneously with different concentrations (10^-5-10^-11 M) of unlabeled FAPI-02 or EB-FAPI-B1 and ^68Ga-FAPI-02 in 0.4 mL of fresh medium for 1 h. At the corresponding time points, the medium was removed and the cells were washed twice with cold PBS (pH 7.4) and subsequently lysed with 1 mL of NaOH (0.1 M). Cell lysates was collected and the radioactivity was determined using a γ-counter. The cell uptake experiment was repeated four times for each time point and the competition assays were repeated three times at different concentrations.
# [2] = Biodistribution in healthy ICR mice; assay type: in vivo
# Procedure: (§2) In biodistribution study of normal mice, healthy ICR mice (18-20 g) were randomly divided into 6 groups (n = 4/group), injected with radiotracers (740 kBq in 0.1 mL saline) and sacrificed at 0.25, 1, 4, 8, 24 and 48 h p.i. Tissues and organs of interest were collected, wet weighed, and counted by a γ-counter. In addition, BALB/c nude mice bearing U87MG tumors were injected with radiotracers for SPECT imaging, and then, sacrificed at 96 h p.i., the major organs and tumors were collected and weighed. Radioactivity was detected using a γ-counter, and the results were calculated as percentage of injected dose per gram (%ID/g).
# [3] = Octanol/water partition coefficient; assay type: physicochemical
# Procedure: A detailed scheme of chemical synthesis protocol is elaborated in the supplementary materials. To radiolabel the precursor with ^177Lu, 185-740 MBq of ^177LuCl3 was firstly diluted with 0.2 mL of 0.5 M NH4OAc (pH = 5.5) before incubating with EB-FAPI-Bn (50 μg dissolved in 10 μL dimethyl sulfoxide). The mixture was heated and thoroughly mixed for 30 min at 95 °C. Radiolabeling efficiency and radiochemical purity were tested using thin-layer chromatography (TLC) and high-performance liquid chromatography (HPLC). Radiolabeling of ^68Ga was performed by incubating with 50 μg precursor (pH = 4.5-5.0) at 95 ℃ for 10 min. The ^68Ga-labeled product was purified by C18 column extraction and the radiochemical purity was determined by HPLC. Stability of ^177Lu-EB-FAPI-B1, ^177Lu-EB-FAPI-B2, ^177Lu-EB-FAPI-B3 and ^177Lu-EB-FAPI-B4 (See Figure 1 for the structures) in PBS and saline were monitored up to 24 h using radio-HPLC. More information about radiochemistry, quality control and octanol/water partition coefficient can be found in supplemental information.
# [4] = Safety evaluation in the therapy study (body weight, H&E staining of major organs); assay type: in vivo, BALB/c nude mice
# Procedure: (§3) Two weeks after inoculation of U87MG tumor cells, the average tumor volume reached about 100 mm^3 in BALB/c nude mice. The U87MG tumor-bearing mice were randomly divided into 4 groups (n = 8/group), and subsequently treated with saline, 30 MBq ^177Lu-EB-FAPI-B1, 18.5 MBq ^177Lu-EB-FAPI-B1, 7.4 MBq ^177Lu-EB-FAPI-B1, respectively. Tumor volumes and body weights of all mice were monitored every two days. Individual tumor size was calculated with the formula: length × width^2/2. The mice were euthanized when the tumor volume exceeded 1500 mm^3. Histopathologic staining was performed with an anti-human FAP mAb (ab207178, Abcam). Hematoxylin and eosin (H&E) staining and terminal deoxynucleotidyl transferase-mediated dUTP-biotin nick-end labeling (TUNEL) analysis were carried out using a commercially available kit (Beyotime).
# U87MG tumor [5] = test: Small animal SPECT/CT imaging in U87MG tumor-bearing mice; assay type: in vivo, BALB/c nude mice
# Procedure: (§4) All animal studies were approved by the Animal Care and Use Committee of Xiamen University and carried out in compliance with the national laws related to the conduct of animal experimentation. 6-week-old female BALB/c nude mice from Beijing Vital River Laboratory Animal Technology Co., Ltd. were used in this study. The right upper limbs of BALB/c nude mice were subcutaneously inoculated with the suspension of U87MG cells (5 × 10^6 cells in 100 μL of PBS). The mice underwent radioligand therapy experiments when the tumor volume reached about 100 mm^3 and small animal SPECT imaging studies when the tumor volume reached about 500 mm^3.
# SPECT/CT imaging studies were performed using a nanoSPECT/CT preclinical scanner (Mediso, Hungary). About 37 MBq of radiotracers were injected intravenously into female ICR mice and U87MG tumor-bearing mice, whole body SPECT images were acquired at 1, 4, 24, 48, 72 and 96 h p.i. The acquisition parameters were as follows: 56.1, 112.9 and 208.4 keV energy peaks for ^177Lu, window width of 20%, matrix of 256 × 256, medium zoom, and 48 frames. Mice were anaesthetized using 1.5% isoflurane to maintain spontaneous breathing during imaging.
# U87MG tumor [6] = test: Biodistribution in U87MG tumor-bearing mice at 96 h p.i.; set-up: species or system BALB/c nude mice; details: ex vivo counting
# Procedure: as §4, §2
# U87MG tumor [7] = test: Radioligand therapy study and tumor histopathology in U87MG tumor-bearing mice; assay type: in vivo, BALB/c nude mice
# Procedure: as §4, §3
# [8] = In vitro stability in PBS and saline (radio-HPLC/TLC); assay type: physicochemical
# FAP = molecular target: T1, FAP (Homo sapiens, UniProt Q12884); test: Competition assay against ^68Ga-FAPI-02 in U87MG cells; details: unlabeled ligand competing with ^68Ga-FAPI-02, 1 h, read-out: IC50 (binding affinity to FAP in vitro)
# T1 construct: endogenous in cells; host or cells: U87MG cells
# T1 sequence (Q12884 1-760): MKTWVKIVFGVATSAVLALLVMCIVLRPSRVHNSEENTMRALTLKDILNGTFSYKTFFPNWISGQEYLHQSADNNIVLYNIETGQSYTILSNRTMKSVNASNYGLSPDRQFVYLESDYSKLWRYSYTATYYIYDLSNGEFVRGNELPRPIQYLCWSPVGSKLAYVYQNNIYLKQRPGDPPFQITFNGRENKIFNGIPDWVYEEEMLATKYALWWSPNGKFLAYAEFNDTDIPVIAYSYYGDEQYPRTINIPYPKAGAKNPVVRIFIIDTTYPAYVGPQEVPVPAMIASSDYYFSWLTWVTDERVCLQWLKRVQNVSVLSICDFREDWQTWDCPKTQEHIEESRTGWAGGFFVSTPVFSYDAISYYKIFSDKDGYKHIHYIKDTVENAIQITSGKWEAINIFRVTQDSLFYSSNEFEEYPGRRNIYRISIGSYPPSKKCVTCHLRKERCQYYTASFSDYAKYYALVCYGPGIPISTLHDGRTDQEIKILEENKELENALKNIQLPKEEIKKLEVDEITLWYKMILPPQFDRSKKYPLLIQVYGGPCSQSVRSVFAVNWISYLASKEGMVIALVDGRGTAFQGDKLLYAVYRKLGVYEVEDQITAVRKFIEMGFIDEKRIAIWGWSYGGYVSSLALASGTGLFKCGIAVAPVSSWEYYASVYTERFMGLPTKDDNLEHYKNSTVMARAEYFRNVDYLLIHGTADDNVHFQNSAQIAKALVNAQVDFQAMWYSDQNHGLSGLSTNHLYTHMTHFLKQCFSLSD
# Procedure: as §1
# [9] = SPECT, value given with the increase from 24 h to 96 h p.i.
smiles,measurement,setting,value
"N#C[C@@H]1CCCN1C(=O)CNC(=O)c1ccnc2ccc(OCCCN3CCN(C(=O)CN4CCN(CC(=O)[O-])CCN(CC(=O)[O-])CCN(CC(=O)[O-])CC4)CC3)cc12.[68Ga+3] [^68Ga-FAPI-02, reference compound]",tumor uptake value,U87MG tumor [1],0.85 ± 0.21 %ID/g
same,tumor uptake in the presence of the blocking agent EB-FAPI-B1,U87MG tumor [1]; unlabeled EB-FAPI-B1 as competitor,decreased more than half
Cc1cc(-c2ccc(NC(=O)C(CCCCNC(=O)CCC(=O)N3CCN(CCCOc4ccc5nccc(C(=O)NCC(=O)N6CCC[C@H]6C#N)c5c4)CC3)NC(=O)CN3CCN(CC(=O)[O-])CCN(CC(=O)[O-])CCN(CC(=O)[O-])CC3)c(C)c2)ccc1N=Nc1ccc2c(S(=O)(=O)O)cc(S(=O)(=O)O)c(N)c2c1O.[177Lu+3] (some centres unmarked) [^177Lu-EB-FAPI-B1],cellular uptake with blocking by unlabeled inhibitor,U87MG cells; blocking group,2.25 ± 0.14%
same,highest cellular uptake,U87MG cells; incubation for 24 h,9.97 ± 0.42%
same,blood uptake,[2]; 4 h p.i.,21.93 ± 2.13 %ID/g
same,kidney uptake (highest value),[2]; 8 h p.i.,16.38 ± 2.98 %ID/g
same,kidney uptake,[2]; 48 h p.i.,8.13 ± 1.36 %ID/g
same,Octanol/water partition coefficient (Log P),[3],-1.90 ± 0.12
same,body weight change,"[4]; all treatment groups (30, 18.5, 7.4 MBq)",slight body weight loss
same,H&E staining of major organs (safety evaluation),"[4]; heart, liver, spleen, lung, kidneys after treatment",negligible side effect; also recorded: no distinct tissue damage
same,tumor uptake on SPECT images,U87MG tumor [5]; 4 h p.i.,obvious tumor uptake was observed
same,tumor-to-muscle ratio (T/M),"U87MG tumor [5]; SPECT, 24 h p.i.",12.29 ± 0.85
same,"tumor-to-muscle ratio (T/M), peak","U87MG tumor [5]; SPECT, 72 h p.i.",18.67 ± 3.75
same,tumor-to-muscle ratio (T/M),"U87MG tumor [5]; SPECT, 96 h p.i.",14.15 ± 0.13
same,tumor-to-heart ratio (T/H),U87MG tumor [5]; [9],14.28 ± 2.46
same,tumor-to-kidney ratio (T/K),U87MG tumor [5]; [9],2.35 ± 0.61
same,tumor-to-liver ratio (T/L),U87MG tumor [5]; [9],3.73 ± 1.21
same,tumor uptake,U87MG tumor [6],12.42 ± 1.54 %ID/g
same,TUNEL staining of excised tumor,U87MG tumor [7]; 18.5 MBq group versus saline group,remarkably more cell apoptosis
same,relative tumor size,"U87MG tumor [7]; single dose of 30, 18.5 or 7.4 MBq (all three doses), day 0 to day 22",no more than 5
same,tumor growth compared to the saline group,"U87MG tumor [7]; single dose of 30 MBq, 18.5 MBq or 7.4 MBq",noteworthy tumor growth inhibitions; also recorded: noteworthy tumor growth delay
same,H&E staining of excised tumor,U87MG tumor [7]; treatment groups versus saline group,large necrotic areas
same,time stable in PBS (pH 7.4) and saline,[8]; PBS (pH 7.4) and saline,at least 24 h
same,radiochemistry purity after incubation,"[8]; PBS and saline, at 24 h and 48 h",over 95%
Cc1cc(-c2ccc(NC(=O)C(CCCCNC(=O)CCC(=O)N3CCN(CCCOc4ccc5nccc(C(=O)NCC(=O)N6CCC[C@H]6C#N)c5c4)CC3)NC(=O)CN3CCN(CC(=O)[O-])CCN(CC(=O)[O-])CCN(CC(=O)[O-])CC3)c(C)c2)ccc1N=Nc1ccc2c(S(=O)(=O)O)cc(S(=O)(=O)O)c(N)c2c1O.[68Ga+3] (some centres unmarked) [^68Ga-EB-FAPI-B1],T/M ratio compared with ^68Ga-FAPI-02,U87MG tumor [1],higher T/M ratio
same,tumor uptake value,U87MG tumor [1],3.5 ± 0.22 %ID/g
"N#C[C@@H]1CCCN1C(=O)CNC(=O)c1ccnc2ccc(OCCCN3CCN(C(=O)CN4CCN(CC(=O)[O-])CCN(CC(=O)[O-])CCN(CC(=O)[O-])CC4)CC3)cc12.[177Lu+3] [^177Lu-FAPI-02, reference compound]",blood accumulation relative to ^177Lu-EB-FAPI-B1,[2]; 4 h p.i.,about 1%
same,blood uptake,[2]; 4 h p.i.,0.23 ± 0.06 %ID/g
N#C[C@@H]1CCCN1C(=O)CNC(=O)c1ccnc2ccc(OCCCN3CCN(C(=O)CN4CCN(CC(=O)O)CCN(CC(=O)O)CCN(CC(=O)O)CC4)CC3)cc12 [FAPI-02],IC50,FAP,10.9 nM
